We go through eleven molecules from ChEMBL document CHEMBL5321276, “Novel Benzimidazoles as Potent Small-Molecule Inhibitors and Degraders of V-Domain Ig Suppressor of T-Cell Activation (VISTA)” (J Med Chem, 2023).

Structures are written as SMILES. Active and inactive are the calls of the source. The rule behind the calls is not given here.

In data set [1] the target is T1, V-type immunoglobulin domain-containing suppressor of T-cell activation (Homo sapiens, UniProt Q9H7M9).
T1 sequence (Q9H7M9 whole entry): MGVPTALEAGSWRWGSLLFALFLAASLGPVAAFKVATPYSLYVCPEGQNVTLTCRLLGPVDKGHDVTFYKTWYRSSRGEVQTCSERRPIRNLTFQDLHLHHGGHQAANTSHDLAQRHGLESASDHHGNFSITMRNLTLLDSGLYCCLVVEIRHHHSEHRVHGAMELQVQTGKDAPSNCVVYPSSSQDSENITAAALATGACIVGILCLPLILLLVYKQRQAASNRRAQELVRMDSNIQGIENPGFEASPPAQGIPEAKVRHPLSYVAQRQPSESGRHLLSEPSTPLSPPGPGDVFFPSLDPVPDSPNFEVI
Briefly: Binding affinity to human VISTA assessed as dissociation constant by SPR assay. Background: SPR reads the build-up and loss of mass on a sensor chip optically.

In data set [2] the target is T2, V-type immunoglobulin domain-containing suppressor of T-cell activation (Homo sapiens) (UniProt Q9H7M9).
T2 sequence (whole entry): T1 sequence (Q9H7M9 whole entry)
The data set is described as follows: Inhibition of Fc fused VISTA in CD3/CD28/CD2 T cell activator stimulated human PBMC cells assessed as induction of IFN-gamma secretion at 5 to 10 uM measured after 48 hrs by ELISA assay. It is filed as cell-based. To be noted: dose 5-10 µM.

Data set [3] concerns CT26. The data set is described as follows: Antitumor activity against mouse CT26 cells implanted in BALB/c mouse assessed as reduction in tumor growth at 60 mg/kg, po administered once daily for 15 days. It is filed as functional, organism-based. As to conditions: time 15.0 day.
The subject of data set [4] is HepG2. The data set is described as follows: Induction of autophagy in human HepG2 cells assessed as induction of VISTA degradation at 5 uM by Western blotting analysis. The class given is functional, cell-based. (Immunoblotting shows a protein as a band on a membrane.)
Data set [5] concerns MDA-MB-231. The data set is described as follows: Cytotoxicity against human MDA-MB-231 cells assessed as reduction in cell viability at 5 uM. As to conditions: mda-mb-231, 5 µM. The class given is toxicity, cell-based.
For data set [6], the system named is CT26. Briefly: Antitumor activity against mouse CT26 cells implanted in BALB/c mouse assessed as tumor growth inhibition at 120 mg/kg, po administered once daily for 15 days. The class given is functional. As to conditions: CT26, 360 h, time 15 day, read-out: TGI.
Data set [7] concerns HepG2. Briefly: Induction of autophagy in human HepG2 cells assessed as induction of VISTA degradation at 10 uM measured after 24 hrs in presence of chloroquine by Western blotting analysis. The class given is functional, cell-based.
Data set [8] concerns HepG2. The data set is described as follows: Induction of autophagy in human HepG2 cells assessed as increase in LC3II expression at 10 uM measured after 24 hrs in presence of chloroquine by Western blotting analysis. The class given is functional, cell-based.
The nature of data set [9]: Oral bioavailability in Sprague-Dawley rat at 25 mg/kg measured upto 24 hrs by LC-MS/MS analysis. As to conditions: in vivo. It is filed as ADME, organism-based.
The test system of data set [10] is HepG2. The data set is described as follows: Induction of autophagy in human HepG2 cells assessed as induction of VISTA degradation at 10 uM measured after 24 hrs in presence of 3-MA by Western blotting analysis. It is filed as functional, cell-based.
Data set [11] has as its system MDA-MB-231. Briefly: Antitumor immunity against human MDA-MB-231 cells cocultured with CD3/CD28/CD2 T cell activator stimulated human PBMC cells assessed as reduction in cell growth by measuring LDH release pre-treated with compound for 2 hrs measured after 12 hrs. To be noted: dose 0.313-5 µM, time 14.0 hrs. It is filed as functional, cell-based. A general note: LDH in the medium is a marker of cell lysis.

The target in data set [12] is T3, V-type immunoglobulin domain-containing suppressor of T-cell activation (Mus musculus, UniProt Q9D659).
T3 sequence (Q9D659 whole entry): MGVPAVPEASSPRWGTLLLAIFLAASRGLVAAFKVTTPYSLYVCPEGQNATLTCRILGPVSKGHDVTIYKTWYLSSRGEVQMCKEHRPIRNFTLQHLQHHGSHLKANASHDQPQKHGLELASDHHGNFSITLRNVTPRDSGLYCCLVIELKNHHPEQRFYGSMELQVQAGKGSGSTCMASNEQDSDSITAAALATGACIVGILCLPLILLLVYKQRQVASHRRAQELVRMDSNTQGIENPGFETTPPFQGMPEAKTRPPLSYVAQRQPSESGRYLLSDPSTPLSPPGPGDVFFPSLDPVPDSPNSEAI
The data set is described as follows: Binding affinity to mouse VISTA assessed as dissociation constant incubated for 10 mins by MST assay.

A short description of data set [13]: Toxicity in BALB/c mouse implanted with mouse CT26 cells assessed as mortality at 30 to 120 mg/kg, po administered once daily for 15 days. The class given is organism-based. To be noted: in vivo, 360 h, dose 30-120 mg/kg, time 15 day.
In data set [14] the test system is CT26. Briefly: Antitumor activity against po dosed mouse CT26 cells implanted in BALB/c mouse assessed as reduction in tumor growth administered once daily for 15 days. The class given is functional, organism-based. To be noted: dose 30-120 mg/kg, time 15.0 day.
The subject of data set [15] is CT26. Briefly: Antitumor activity against mouse CT26 cells implanted in BALB/c mouse assessed as tumor growth inhibition at 30 mg/kg, po administered once daily for 15 days. It is filed as functional. As to conditions: CT26, 360 h, time 15 day, read-out: TGI.
The next data set has as its system PBMC. The data set is described as follows: Cytotoxicity against human PBMC cells assessed as reduction in cell viability at 5 uM. It is filed as toxicity, cell-based.
In data set [16] the test system is HepG2. The data set is described as follows: Induction of autophagy in human HepG2 cells harboring adenovirus-mCherry-GFP-LC3B assessed as increase in LC3 puncta accumulation measured after 24 hrs by inverted fluorescence microscopic analysis. It is filed as functional, cell-based. As to conditions: dose 5-10 µM.
Data set [17] concerns CT26. Briefly: Antitumor activity against mouse CT26 cells implanted in BALB/c mouse assessed as tumor growth delay at 30 to 120 mg/kg, po administered once daily for 15 days by Hematoxylin and eosin based analysis. It is filed as functional, organism-based. As to conditions: dose 30-120 mg/kg, time 15.0 day.
Data set [18] relates to CT26. The data set is described as follows: Antitumor activity against mouse CT26 cells implanted in BALB/c mouse assessed as induction of VISTA degradation in tumor at 30 to 120 mg/kg, po administered once daily for 15 days by Western blotting analysis. As to conditions: dose 30-120 mg/kg, time 15.0 day. It is filed as functional, organism-based.
The test system of data set [19] is HepG2. The data set is described as follows: Induction of autophagy in human HepG2 cells assessed as induction of VISTA degradation measured after 24 hrs by Western blotting analysis. It is filed as functional, cell-based. To be noted: dose 5-10 µM.
For data set [20], the system named is CT26. Briefly: Antitumor activity against mouse CT26 cells implanted in BALB/c mouse assessed as tumor shrinkage at 30 to 120 mg/kg, po administered once daily for 15 days by Hematoxylin and eosin based analysis. The class given is functional, organism-based. As to conditions: dose 30-120 mg/kg, time 15.0 day.
The subject of data set [21] is CT26. The data set is described as follows: Antitumor activity against po dosed mouse CT26 cells implanted in BALB/c mouse assessed as increase in infiltration of CD8 positive cells in tumor administered once daily for 15 days by DAPI staining based fluorescent inverted microscopic analysis. The class given is functional, organism-based. As to conditions: dose 30-120 mg/kg, time 15.0 day.

In data set [22] the test system is HepG2. The data set is described as follows: Induction of autophagy in human HepG2 cells assessed as induction of VISTA degradation at 10 uM measured after 24 hrs in presence of MG132 by Western blotting analysis. It is filed as functional, cell-based.
Data set [23] is described as follows: Toxicity in BALB/c mouse implanted with mouse CT26 cells assessed as reduction in body weight at 30 to 120 mg/kg, po administered once daily for 15 days. It is filed as organism-based. As to conditions: in vivo, 360 h, dose 30-120 mg/kg, time 15 day.
Data set [24] deals with HepG2. The data set is described as follows: Induction of autophagy in human HepG2 cells assessed as induction of VISTA degradation at 10 uM measured upto 4 hrs in presence of cycloheximide by Western blotting analysis. The class given is functional, cell-based.
Data set [25] relates to CT26. The data set is described as follows: Antitumor activity against mouse CT26 cells implanted in BALB/c mouse assessed as tumor growth inhibition at 60 mg/kg, po administered once daily for 15 days. The class given is functional. As to conditions: CT26, 360 h, time 15 day, read-out: TGI.
The subject of data set [26] is HepG2. The data set is described as follows: Induction of autophagy in human HepG2 cells assessed as induction of VISTA degradation at 10 uM measured after 24 hrs in presence of pepstatin A by Western blotting analysis. The class given is functional, cell-based.

Broadly, the Kd is the constant that tells how readily two partners part at equilibrium. On to `Cc1c(-c2ccccc2)ccc2nc(-c3cccc(CNCCN)c3)[nH]c12`, for which the dissociation constant (Kd) in data set [1] is 491 nM.
With `CC(=O)NCCNCc1ccc(-c2nc3ccc(-c4ccccc4)c(C)c3[nH]2)cc1`, the inhibition entry in data set [2] was “Active”. Moreover, the Kd in data set [1] was found to be 374 nM.
On to `CC(=O)NCCNCc1cccc(-c2nc3ccc(Br)c(C)c3[nH]2)c1`, for which the Kd in [1] was 1160 nM.
In the case of `C[C@@H](O)[C@H](NC(=O)N[C@@H](CC(N)=O)c1nc([C@@H](N)CO)no1)C(=O)O`, the result in the data set with CT26 [3] was Active. Moreover, the outcome in the data set with HepG2 [4] was inactive.
On to `CC(=O)NCCNCc1cccc(-c2nc3ccc(-c4ccccc4)c(C)c3[nH]2)c1`, for which the inhibition entry in data set [2] is “Active”. In addition, the Kd in [1] turned out to be 187 nM.
For the molecule `CC(=O)NCCNCc1cccc(-c2nc3cccc(C)c3[nH]2)c1`, the Kd in [1] turned out to be 3120 nM.
Same read-out and setting: the value for `Cc1c(-c2ccccc2)ccc2nc(-c3ccc(CNCCO)cc3)[nH]c12` was 1130 nM; that for `Cc1c(-c2ccccc2)ccc2nc(-c3cccc(CNCC[C@@H]4CCC(=O)N4)c3)[nH]c12` was 763 nM.
Still for that read-out and setting: next, `Cc1c(-c2ccccc2)ccc2nc(-c3cccc(CNCC(=O)O)c3)[nH]c12`: 1050 nM.
The bioavailability is the share of a dose that reaches the circulation, judged against a reference dose that is usually intravenous. Lower therefore signals poor availability. Take `Cc1c(-c2ccccc2)ccc2nc(-c3cccc(CNCCO)c3)[nH]c12`: the Activity entry in the data set with MDA-MB-231 [5] is “Non-Toxic”; in the data set with MDA-MB-231 [11] it was “Dose-Dependent Effect”; in data set [13] it was “Non-Toxic”; with CT26 [14], “Dose-Dependent Effect”; with PBMC, “Non-Toxic”; with HepG2 [16], “Dose-Dependent Effect”. Besides, the Activity result in the data set on HepG2 [19] was “Dose-Dependent Effect”; in the data set on CT26 [21], “Dose-Dependent Effect”; in data set [23] it was “Non-Toxic”. Moreover, in the data set on CT26 [6], the inhibition in vivo at 120 mg/kg was 59%. For the same molecule, the result in the data set on HepG2 [7], with HepG2 [10] and with HepG2 [26] was inactive. In addition, the outcome with HepG2 [8], with HepG2 [4], in the data set on CT26 [17], in the data set with CT26 [18], in the data set on CT26 [20] and in the data set on HepG2 [22] was Active. The outcome in the data set on HepG2 [24] was Active. This molecule yielded a bioavailability in data set [9] of 16%. The Kd in data set [12] turned out to be 6800 nM. Also, the inhibition entry in data set [2] was “Active”. Moreover, the inhibition in vivo at 30 mg/kg in the data set with CT26 [15] is 29%. The inhibition in vivo at 60 mg/kg in the data set with CT26 [25] came out at 41%.
With `Cc1c(-c2ccccc2)ccc2nc(-c3cccc(CNC[C@H](O)CC(=O)O)c3)[nH]c12`, the Kd in data set [1] worked out at 1780 nM.
